As usually defined, the MIC is the least concentration at which growth counts as inhibited.

Converted amounts (≈) assume the structure as drawn. Where two headings read alike, the source gives them in different places. *1 amine or outer side, *2 acyl side, *3 side chain or, on linkers, in order; H or OH if unused. Where a SMILES comes first, the peptide text is derived from it. Bridges are numbered along the chain shown (N, C = ends). [ ]: non-standard residue; d: D form. The star is where a group is joined. hTyr(3S-OH,4S-OH,3'-OSO3H) = N[C@H](C(=O)O)[C@H](O)[C@@H](O)c1ccc(O)c(OS(=O)(=O)O)c1; Orn(4R-OH,5R-OH) = O=C([C@H](C[C@@H](O)[C@@H](O)N[*:3])N[*:1])[*:2]; Pro(3S-OH,4S-Me) = C[C@H]1CN[C@H](C(=O)O)[C@H]1O; X1 = CCCCCOc1ccc(-c2cc(-c3ccc(C(=O)*)cc3)no2)cc1; Gln(3R-OH) = NC(=O)C[C@@H](O)[C@H](N)C(=O)O; Hyp = O=C(O)[C@@H]1C[C@@H](O)CN1

Series [1] concerns azole-resistant C. albicans R357 strain. Nature of the series: MIC and CLSI susceptibility, azole-resistant C. albicans R357. Format: cell-based, Candida albicans. Particulars: for Susceptibility of strain R357 in words: C. albicans R357 isolated from human blood.
In series [2] the test system is Aspergillus fumigatus (ATCC 13073). The series can be described thus: Neutropenic mouse model of aspergillosis, survival. The class given is in vivo, mice. To be noted: 2 mg/kg IP one dose; 10 days; P<0.05.
A further series deals with C. albicans (R357). The series can be described thus: Disseminated infection model with C. albicans R357, kidney fungal counts. The class given is in vivo, ICR mice.
Another series relates to C. auris isolates. Nature of the series: Candida auris antifungal susceptibility testing (AFST), CLSI M27-A3. The class given is cell-based.
The nature of series [3]: Solubility of test articles in vehicle, visual observation. Particulars: WFI; 2 mg/mL.
Experimental: Amphotericin B and fluconazole were in powder form. Amphotericin B was dissolved in 0.9% NaCl. Fluconazole was dissolved in water (WFI: water for injection).

On to `C[C@@H]1[C@H](O)[C@@H](C)/C=C/C=C/C=C/C=C/C=C/C=C/C=C/[C@H](O[C@@H]2O[C@H](C)[C@@H](O)[C@H](N)[C@@H]2O)C[C@@H]2O[C@](O)(C[C@@H](O)C[C@@H](O)[C@H](O)CC[C@@H](O)C[C@@H](O)CC(=O)O[C@H]1C)C[C@H](O)[C@H]2C(=O)O` [Amphotericin B, amphotericin B], for which the “Susceptibility (CLSI)” value in series [1] (C. albicans R357) is “S”. Also, the MIC in series [1] (C. albicans R357, endpoint 100% inhibition) was determined as 0.5 µg/mL (≈ 0.541 µM). Moreover, in series [1], the “Susceptibility of strain R357 in words” value is on record as “susceptible”. For the same compound, in series [2], the Survival versus vehicle entry is “significantly longer survival than vehicle”. Besides, the “Reduction in fungal counts” value with C. albicans (R357) (3 mg/kg IV, 72 hr) is “two log reduction”. In the series on C. albicans (R357) (1 and 3 mg/kg IV once, 48 and 72 hr after infection), the “Antimicrobial effect versus vehicle (kidney fungal counts)” value is listed as “Significant effects”.

With `CC[C@H](C)C[C@H](C)CCCCCCCCC(=O)N[C@H]1C[C@@H](O)[C@@H](NCCN)NC(=O)[C@@H]2[C@@H](O)CCN2C(=O)[C@H]([C@H](O)CCN)NC(=O)[C@H]([C@H](O)[C@@H](O)c2ccc(O)cc2)NC(=O)[C@@H]2C[C@@H](O)CN2C(=O)[C@H]([C@@H](C)O)NC1=O` [Caspofungin, caspofungin], the “Susceptibility (CLSI)” value in series [1] (C. albicans R357) is recorded as “S”. The MIC in series [1] (Candida albicans, C. albicans R357, endpoint 50% inhibition, read-out: MIC) stood at 0.25 µg/mL (≈ 0.229 µM). Moreover, the “Breakthrough at 48 h” value in the series with C. auris isolates (C. auris strains) was “most strains breakthrough”. In addition, in the series with C. auris isolates (of 38 isolates), the “Number of resistant C. auris isolates” value was 4.

Regarding `OC(Cn1cncn1)(Cn1cncn1)c1ccc(F)cc1F` [Fluconazole, fluconazole], the “Susceptibility (CLSI)” value in series [1] (C. albicans R357) was “R”. Besides, the “Susceptibility of strain R357 in words” value in series [1] is recorded as “resistant”. Further, in series [1] (Candida albicans), the MIC is > 64 µg/mL. The Solubility entry in series [3] is given as “S”. The “Reduction in colony counts compared to vehicle” value in the series on C. albicans (R357) (20 mg/kg PO, 48 hr after infection) came to 51%; in the series on C. albicans (R357) (20 mg/kg PO, 72 hr after infection) it was 84%. Also, the “Statistical significance of reduction versus vehicle” value in the series on C. albicans (R357) (20 mg/kg PO, one-way ANOVA, Dunnett's test (P>0.05)) is reported as “not significant”. Also, in the series with C. auris isolates (of 38 isolates), the “Number of resistant C. auris isolates” value is on record as 38.

`CCCCCOc1ccc(-c2cc(-c3ccc(C(=O)N[C@H]4C[C@@H](O)[C@@H](O)NC(=O)[C@@H]5[C@@H](O)[C@@H](C)CN5C(=O)[C@H]([C@H](O)CC(N)=O)NC(=O)[C@H]([C@H](O)[C@@H](O)c5ccc(O)c(OS(=O)(=O)O)c5)NC(=O)[C@@H]5C[C@@H](O)CN5C(=O)[C@H]([C@@H](C)O)NC4=O)cc3)no2)cc1` [MICA, micafungin] (X1-[Orn(4R-OH,5R-OH)]T[Hyp][hTyr(3S-OH,4S-OH,3'-OSO3H)][Gln(3R-OH)][Pro(3S-OH,4S-Me)]; lactam 1-C): the “Number of resistant C. auris isolates” value in the series on C. auris isolates turned out to be 4.

Turning to `CC[C@@H]([C@H](C)O)n1ncn(-c2ccc(N3CCN(c4ccc(OC[C@@H]5CO[C@@](Cn6cncn6)(c6ccc(F)cc6F)C5)cc4)CC3)cc2)c1=O` [Posaconazole, posaconazole], in series [1], the “Susceptibility of strain R357 in words” value is “resistant”. In addition, the MIC in series [1] (Candida albicans) was > 64 µg/mL.

With `C[C@@H](c1ncncc1F)[C@](O)(Cn1cncn1)c1ccc(F)cc1F` [Voriconazole, voriconazole], the “Susceptibility (CLSI)” value in series [1] (C. albicans R357) was “R”. In addition, the “Susceptibility of strain R357 in words” value in series [1] is listed as “resistant”. In series [1] (Candida albicans), the MIC was > 64 µg/mL.

The values are drawn from patent publication US20240108684A1, “DOSING REGIMENS FOR TREATMENT OF FUNGAL INFECTIONS” (priority 2016, published 2024).
